The text below walks through data of PMC4539253 (Bioorganic & medicinal chemistry letters, 2014).

One may read the IC50 as the concentration that inhibits the measured activity by half. A high value points to lower potency.

Data set [1] has as its system Caco-2. The data set can be described thus: Caco-2 permeability. It is filed as in vitro ADME. Conditions: <15 is limit of detection. (In general: Caco-2 cells form a polarised layer with tight junctions and transporters.)
Data set [2] concerns the target CCR2 (Homo sapiens, UniProt P41597). The data set is described as follows: CCR2 binding.
Data set [3] deals with human-CCR2 knock-in mice. The data set can be described thus: 6-h thioglycollate. As to conditions: mouse, in vivo.
Data set [4] concerns the target mouse CCR2 (Mus musculus, UniProt P51683). The data set is described as follows: Activity versus mouse CCR2.
Data set [5] has as its system wild-type mice. The data set is described as follows: TG-induced peritonitis model using wild-type mice. It is filed as in vivo, mouse. As to conditions: data not shown.

Marks after values point to notes of the source that are not given here.

Sequence of CCR2 (P41597 whole entry): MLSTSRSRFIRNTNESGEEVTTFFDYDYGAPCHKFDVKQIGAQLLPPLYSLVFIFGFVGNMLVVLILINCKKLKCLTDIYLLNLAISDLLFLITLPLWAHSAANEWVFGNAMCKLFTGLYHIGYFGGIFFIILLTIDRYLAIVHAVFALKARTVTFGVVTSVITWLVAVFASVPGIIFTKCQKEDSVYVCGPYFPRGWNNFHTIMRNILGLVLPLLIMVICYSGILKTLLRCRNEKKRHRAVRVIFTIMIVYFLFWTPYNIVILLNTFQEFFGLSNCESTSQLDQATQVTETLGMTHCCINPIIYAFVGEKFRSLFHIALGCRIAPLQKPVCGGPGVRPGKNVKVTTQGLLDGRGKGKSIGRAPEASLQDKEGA
Sequence of mouse CCR2 (P51683 whole entry): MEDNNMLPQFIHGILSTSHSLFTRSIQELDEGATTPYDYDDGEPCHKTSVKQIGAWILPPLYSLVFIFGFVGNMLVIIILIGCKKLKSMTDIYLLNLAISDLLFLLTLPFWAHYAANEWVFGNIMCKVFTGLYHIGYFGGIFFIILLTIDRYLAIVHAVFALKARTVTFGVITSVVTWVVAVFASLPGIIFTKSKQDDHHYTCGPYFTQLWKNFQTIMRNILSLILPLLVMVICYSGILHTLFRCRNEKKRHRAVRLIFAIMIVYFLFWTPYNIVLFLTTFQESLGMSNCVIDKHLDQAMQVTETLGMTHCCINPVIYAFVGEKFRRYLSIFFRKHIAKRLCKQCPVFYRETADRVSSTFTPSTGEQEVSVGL

Take `CC(C)N(C)[C@@H]1CC[C@H](N2CC[C@H](NC(=O)c3cccc(C(F)(F)F)c3)C2=O)[C@H](CS(=O)(=O)c2ccccc2)C1` [Compound 1]: the “Caco-2 PAP-BL” value in data set [1] is <15 ^e nm/s.
Turning to `CC(C)N(C)[C@@H]1CC[C@H](N2CC[C@H](NC(=O)c3cccc(C(F)(F)F)c3)C2=O)[C@H](CS(C)(=O)=O)C1` [Compound 2], in data set [2] (compared to 1), the “loss in CCR2 binding affinity as compared to 1” value is on record as ~2 fold. Further, in data set [1], the “Caco-2 PAP-BL” value is <15 nm/s. For the same compound, the “inflammatory monocytes (Ly6C+F4/80+) in blood as compared to vehicle” value in data set [3] is recorded as “significant reduction”. In data set [4], the “activity versus mouse CCR2” value was “poor activity”.
`CCS(=O)(=O)C[C@@H]1C[C@H](N(C)C(C)C)CC[C@@H]1N1CC[C@H](NC(=O)c2cccc(C(F)(F)F)c2)C1=O` [Compound 8] returned a half-maximal inhibitory concentration (IC50) in data set [2] of 1.3 ± 0.02 nM. Besides, the “Caco-2 PAP-BL” value in data set [1] is <15 nm/s.
Consider `CC(C)N(C)[C@@H]1CC[C@H](N2CC[C@H](NC(=O)c3cccc(C(F)(F)F)c3)C2=O)[C@H](CS(=O)(=O)C(C)C)C1` [Compound 10], for which the “increase in CCR2 binding affinity as compared to 2” value in data set [2] (compared to 2) is given as 6 fold. In data set [1], the “Caco-2 PAP-BL” value is given as <15 nm/s.
With `CC(C)N(C)[C@@H]1CC[C@H](N2CC[C@H](NC(=O)c3cccc(C(F)(F)F)c3)C2=O)[C@H](CS(=O)(=O)C(C)(C)C)C1` [Compound 12], the “Caco-2 PAP-BL” value in data set [1] is listed as 30 nm/s. Besides, the “activity in TG-induced peritonitis model” value in data set [5] is reported as “did not show any activity”. In data set [4], the “activity versus mouse CCR2” value was “poor activity”.
